Experimental data taken from PubChem BioAssay (NCI).
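Grown in 96-well plates, cells were treated for 48 hours with each compound at five concentrations. Insufficient inhibition: endpoint recorded as highest concentration tested. At the TGI there is no net growth.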

Columns and labels:
Assay in all cases: inhibition of tumour cell growth, NCI panel, 48 h
[1] = system: 786-0 renal
[2] = system: A498 renal
[3] = system: A549 NSCLC
[4] = system: ACHN renal
[5] = system: BT-549 breast
[6] = system: CAKI-1 renal
[7] = system: CCRF-CEM leukemia
[8] = system: COLO 205 colon
[9] = system: DU-145 prostate
[10] = system: EKVX NSCLC
[11] = system: HCC-2998 colon
[12] = system: HCT-116 colon
[13] = system: HCT-15 colon
[14] = system: HL-60(TB) leukemia
[15] = system: HOP-62 NSCLC
[16] = system: HOP-92 NSCLC
[17] = system: HS 578T breast
[18] = system: HT29 colon
[19] = system: IGROV1 ovarian
[20] = system: K-562 leukemia
[21] = system: KM12 colon
[22] = system: LOX IMVI melanoma
[23] = system: M14 melanoma
[24] = system: MALME-3M melanoma
[25] = system: MCF7 breast
[26] = system: MDA-MB-231 breast
[27] = system: MDA-MB-435
[28] = system: MDA-N
[29] = system: MOLT-4 leukemia
[30] = system: NCI-H226 lung
[31] = system: NCI-H23 lung
[32] = system: NCI-H460 lung
[33] = system: NCI-H522 lung
[34] = system: NCI/ADR-RES ovarian
[35] = system: OVCAR-3 ovarian
[36] = system: OVCAR-4 ovarian
[37] = system: OVCAR-5 ovarian
[38] = system: OVCAR-8 ovarian
[39] = system: PC-3 prostate
[40] = system: RPMI-8226 leukemia
[41] = system: RXF 393 renal
[42] = system: SF-268 CNS
[43] = system: SF-295 CNS
[44] = system: SF-539 CNS
[45] = system: SK-MEL-2 melanoma
[46] = system: SK-MEL-28 melanoma
[47] = system: SK-MEL-5 melanoma
[48] = system: SK-OV-3 ovarian
[49] = system: SN12C renal
[50] = system: SNB-19 CNS
[51] = system: SNB-75 CNS
[52] = system: SR leukemia
[53] = system: SW-620 colon
[54] = system: T-47D breast
[55] = system: TK-10 renal
[56] = system: U251 CNS
[57] = system: UACC-257 melanoma
[58] = system: UACC-62 melanoma
[59] = system: UO-31 renal

For `N#Cc1ccc(C(=O)/C=C/c2ccc(O)c(O)c2)cc1`, the TGI [1] was > 52.9 µM, the TGI [2] was 31.9 µM and the TGI [3] was 31.8 µM. It also gave a TGI [4] of 31.8 µM, a TGI [5] of 25.3 µM and a TGI [6] of 29.6 µM. It also gave a TGI [7] of 14.3 µM, a TGI [8] of 30.5 µM and a TGI [9] of 30 µM. The TGI [10] was 31.8 µM, the TGI [11] was 28.2 µM and the TGI [12] was 22.8 µM. It also gave a TGI [13] of 30.1 µM, a TGI [14] of 19.8 µM and a TGI [15] of 32.4 µM. For the same compound, the TGI [16] was 29.6 µM, the TGI [17] was > 76.6 µM and the TGI [18] was 31.2 µM. For the same compound, the TGI [19] was 27 µM, the TGI [20] was 34 µM and the TGI [21] was 30.5 µM. For the same compound, the TGI [22] was 26.3 µM, the TGI [23] was 32.8 µM and the TGI [24] was 29.3 µM. For the same compound, the TGI [25] was 26 µM, the TGI [26] was 30.7 µM and the TGI [27] was 28.5 µM. It also gave a TGI [28] of 30.7 µM, a TGI [29] of 37.6 µM and a TGI [30] of 62.7 µM. It also gave a TGI [31] of 33 µM, a TGI [32] of 29.8 µM and a TGI [33] of 7.54 µM. The TGI [34] was > 65.8 µM, the TGI [35] was 29.3 µM and the TGI [36] was 25.7 µM. The TGI [37] was 33.5 µM, the TGI [38] was > 54.8 µM and the TGI [39] was 30 µM. It also gave a TGI [40] of 25.2 µM, a TGI [41] of 32.4 µM and a TGI [42] of 31.1 µM. It also gave a TGI [43] of 33.9 µM, a TGI [44] of 29.7 µM and a TGI [45] of 33.8 µM. The TGI [46] was 29 µM, the TGI [47] was 28.5 µM and the TGI [48] was > 57.7 µM. The TGI [49] was 28.9 µM, the TGI [50] was 29.3 µM and the TGI [51] was 36.6 µM. It also gave a TGI [52] of 6.27 µM, a TGI [53] of 26.2 µM and a TGI [54] of 31.2 µM. The TGI [55] was 27.6 µM, the TGI [56] was 26.2 µM and the TGI [57] was 30 µM. For the same compound, the TGI [58] was 32.5 µM and the TGI [59] was 25.1 µM.

In the case of `CC1(c2cccc(Cl)c2)CC(c2cccc(Cl)c2)=C(C#N)C(=C(C#N)C#N)N1` (configuration not stated), the TGI [1] is reported as 30.1 µM, the TGI [2] is reported as 39.3 µM and the TGI [3] is reported as 42.1 µM. It also gave a TGI [4] of 31.9 µM, a TGI [5] of 51.2 µM and a TGI [6] of 32.3 µM. For the same compound, the TGI [7] was > 100 µM, the TGI [8] was 29.9 µM and the TGI [9] was 29.3 µM. It also gave a TGI [10] of 46.5 µM, a TGI [11] of 30.3 µM and a TGI [12] of 34.1 µM. It also gave a TGI [13] of 33.8 µM, a TGI [14] of 46.2 µM and a TGI [15] of 41.3 µM. For the same compound, the TGI [16] was 21.4 µM, the TGI [17] was 34.1 µM and the TGI [18] was 91.2 µM. The TGI [19] was 31.8 µM, the TGI [20] was > 100 µM and the TGI [21] was 39 µM. It also gave a TGI [22] of 39 µM, a TGI [23] of 31.9 µM and a TGI [24] of 35.2 µM. It also gave a TGI [25] of 51.6 µM, a TGI [26] of 48.6 µM and a TGI [27] of 35.3 µM. The TGI [28] was 39.7 µM, the TGI [29] was 57.3 µM and the TGI [30] was 60.9 µM. The TGI [31] was 39 µM, the TGI [32] was 94.3 µM and the TGI [34] was 48.1 µM. It also gave a TGI [35] of 23 µM, a TGI [36] of 32.6 µM and a TGI [37] of 46.4 µM. It also gave a TGI [38] of 42.6 µM, a TGI [39] of 34.3 µM and a TGI [40] of 59.4 µM. For the same compound, the TGI [41] was 29.3 µM, the TGI [42] was 20.1 µM and the TGI [43] was 33.4 µM. For the same compound, the TGI [44] was 37.2 µM, the TGI [45] was 64.8 µM and the TGI [46] was 74 µM. It also gave a TGI [47] of 28.6 µM, a TGI [48] of 32.8 µM and a TGI [49] of 36.4 µM. The TGI [50] was 39.9 µM, the TGI [51] was 34.3 µM and the TGI [52] was 65.3 µM. The TGI [53] was > 100 µM, the TGI [54] was 38 µM and the TGI [55] was 31.8 µM. The TGI [56] was 37.8 µM, the TGI [57] was 42 µM and the TGI [58] was 34.6 µM. For the same compound, the TGI [59] was 29.3 µM.
